{
  "source": "patent US7935853B2",
  "about": "“Micronized composition of a 2,4-disubstituted phenol derivative” (priority 2008, dated 2011)",
  "test_system": "pulmonary fibrosis induced by bleomycin in C57/BL6 mice",
  "test": "Model of pulmonary fibrosis induced by bleomycin in mice (bronchoalveolar lavage fluid)",
  "assay_type": "in vivo, mouse",
  "experimental": "In the study, female, young and healthy C57/BL6 mice were used, of approximately 9-10 weeks of age at the start of the experimental phase. The choice of C57/BL6 mice was because this is the most commonly used mouse strain in the pulmonary fibrosis model.\nThree experimental groups were used in the study:\nGroup A: (positive control): Bleomycin+Vehicle (PBS) n=10\nGroup B: Bleomycin+2,4,6-triiodophenol micronized 10 mg/kg q.d. (every 12 hours) n=10\nGroup C: No treatment (healthy animals) n=1\nWhere n is the number of animals in each experimental group.\nThe test item was administered as a suspension in 0.25% methylcellulose (the vehicle). The positive control group received the vehicle.\nBoth the test item and the vehicle were administered orally in a volume of 5 ml/kg twice per day (q.d.) every 12 hours.\nOn day 0 pulmonary fibrosis was induced by intratracheal instillation of 0.075 units of bleomycin in 50 μl of sterile saline solution into the lungs of each animal. Immediately afterwards 150 μl of air were introduced intratracheally into each mouse to aid in the pulmonary distribution of the bleomycin.\nOn day 7 after bleomycin administration, treatment with the test item or vehicle was commenced by oral administration. Treatment was carried out twice per day (every 12 hours) and was continued for 15 days.\nOn day 21 after bleomycin administration a bronchoalveolar lavage was carried out on all animals. To this effect, mice were anaesthetized with sodium pentobarbital and the trachea of each animal was cannulated. Afterwards 1 ml of PBS at 37° C. was instilled into each lung and re-aspirated back with the use of a syringe. This process was repeated 5 times, each time collecting the aspirated liquid in a vial and combining the liquid obtained from the 5 lavages. The recovered volume of bronchoalveolar lavage was adjusted for all animals to 5 mls.\nOnce the bronchoalveolar lavage fluid had been obtained, a sample was taken in order to determine cellular viability by trypan blue exclusion. Additionally, a sample of lavage fluid was kept frozen (−20° C.) for subsequent determination of CCL5 and TGF-β concentration by ELISA.\nThe remaining bronchoalveolar lavage fluid was spun in a cytocentrifuge and stained (Diff-Quick) in order to carry out a differential cell count.\nAll animals were weighed on arrival at the laboratory and each day during the treatment phase of the experimental period until the end of the study.\nFor each animal cell viability in bronchoalveolar lavage fluid was determined by Trypan Blue exclusion, and a differential cell count was done by staining cytocentrifuged samples with Diff-Quick stain (this was done on a population of approximately 200 cells per sample). Additionally, the concentration of CCL5 and TGF-β were also determined in bronchoalveolar lavage fluid samples by the use of commercially available ELISA kits specific for mice chemokines from R&D Systems.\nThe statistical significance of the results was evaluated by use of the statistical package Graphpad Instat 3.\nAll comparisons were evaluated by the use of Student's t-test (two-way, unpaired data). Values of P≦0.05 were taken as significant.",
  "key": {"[1]": {"conditions": "10 mg/kg oral twice per day, starting 7 days after bleomycin"}, "[2]": {"conditions": "group mean, day 21, 10 mg/kg oral twice per day from day 7"}, "[3]": {"conditions": "group mean, day 21 after bleomycin, 10 mg/kg oral twice per day from day 7"}, "[4]": {"conditions": "individual mice, day 21, 10 mg/kg oral twice per day from day 7, listed as Group B, 10 mg/kg"}},
  "note": "Several values for one entry are separate records, joined by “and”; a condition that tells them apart may be missing. Equal values may be shown once.",
  "data": [
    {"smiles": "Oc1c(I)cc(I)cc1I", "note": "[Micronized, 2,4,6-triiodophenol]", "values": [
      {"measurement": "effect on bleomycin-induced increase of CCL5 and TGFβ in bronchoalveolar lavage fluid (in words)", "setting": "[1]", "result": "very significant inhibition"},
      {"measurement": "effect on bleomycin-induced lymphocyte and neutrophil percentages in bronchoalveolar lavage fluid (in words)", "setting": "[1]", "result": "reduction of the bleomycin-induced increase in lymphocytes and neutrophil percentages"},
      {"measurement": "CCL5 concentration in BALF, mean", "setting": "[2]", "result": 6.952, "unit": "pg/mL"},
      {"measurement": "TGFβ concentration in BALF, mean", "setting": "[2]", "result": 40.731, "unit": "pg/mL"},
      {"measurement": "Lymphocytes, differential cell count in bronchoalveolar lavage fluid (%)", "setting": "[3]", "result": 34.35, "unit": "%"},
      {"measurement": "Macrophages, differential cell count in bronchoalveolar lavage fluid (%)", "setting": "[3]", "result": 60.33, "unit": "%"},
      {"measurement": "Neutrophils, differential cell count in bronchoalveolar lavage fluid (%)", "setting": "[3]", "result": 5.32, "unit": "%"},
      {"measurement": "CCL5 concentration in BALF, individual animals", "setting": "[4]", "result": "1.887 pg/mL and 3.041 pg/mL and 6.426 pg/mL and 24.658 pg/mL and 3.426 pg/mL and 2.272 pg/mL"},
      {"measurement": "TGFβ concentration in BALF, individual animals", "setting": "[4]", "result": "6.319 pg/mL and 8.389 pg/mL and 26.335 pg/mL and 38.069 pg/mL and 121.586 pg/mL and 9.770 pg/mL and 74.651 pg/mL"}
    ]}
  ]
}
